Assays:
BACE1 = molecular target: T1, BACE1 (Homo sapiens, UniProt P56817); experiment: Cellular Aβ-lowering assay (Abeta 40 AlphaLISA, HEK293 APP cells); assay type: cell-based; conditions: 18-20 hrs incubation, Aβ 40 in culture supernatant, read-out: BACE1 cell act. Aβ40 IC50
T1 construct: endogenous in cells; host or cells: HEK293 APP cells
Summary of the method: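 HEK293 APP cells were treated with compound for 18-20 hrs at 37° C in 1% DMSO. Secreted Aβ40 in the supernatant was measured by AlphaLISA at 615 nm. Values are % of the DMSO-only signal, fit to give IC50.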

[1] = GSH human, in vitro adduct formation; assay type: in vitro ADME; design: key: NF = in vitro no significant adduct formation relative to control; conditions: in vitro adduct formation relative to control
[2] = molecular target: T2, recombinant human cathepsin E (Homo sapiens, UniProt P14091); experiment: Cathepsin E fluorescent substrate kinetic assay; assay type: biochemical; conditions: pH 4.5, substrate MR121-CKLVFFAEDW
T2 construct: purchased R&D Systems
T2 sequence (P14091 54-396): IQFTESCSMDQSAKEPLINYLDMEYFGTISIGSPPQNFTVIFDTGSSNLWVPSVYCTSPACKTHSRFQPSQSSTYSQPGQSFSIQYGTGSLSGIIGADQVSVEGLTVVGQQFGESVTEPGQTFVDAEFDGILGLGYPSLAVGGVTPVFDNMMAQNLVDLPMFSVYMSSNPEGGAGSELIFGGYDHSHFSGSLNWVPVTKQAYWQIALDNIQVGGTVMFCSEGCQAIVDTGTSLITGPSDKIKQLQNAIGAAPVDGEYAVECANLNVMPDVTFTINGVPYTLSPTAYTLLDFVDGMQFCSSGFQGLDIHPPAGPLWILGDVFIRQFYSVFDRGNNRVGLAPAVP
Source text: (§1) Cathepsin D and Cathepsin E Fluorescent Substrate Kinetic Assays
(§2) The MR121 fluorescence assays described below are based on the fact that MR121 forms a non-fluorescent ground state complex with tryptophan. In solution this formation occurs at millimolar concentrations of tryptophan. The mechanism can be used to design a generic biochemical assay for proteases. A substrate peptide is labeled at the N-terminus with tryptophan and at the C-terminus with the fluorophore MR121 (for cathepsin D the 10 amino acid peptide WTSVLMAAPC-MR121 was used; for cathepsin E, MR121-CKLVFFAEDW was used). In absence of protease activity, the substrates remain intact and the MR121 fluorescence is reduced by the high local Trp-concentration. If the substrates are cleaved by the enzymes the MR121 fluorescence is recovered.
(§3) The fluorescent substrate cathepsin D and cathepsin E kinetic assays were performed at room temperature in 384-well microtiter plates (black with clear flat bottom, non-binding surface plates from Corning) in a final volume of 51 μl. The test compounds were serially diluted in DMSO (15 concentrations, ⅓ dilution steps) and 1 μl of diluted compounds were mixed for 10 min with 40 μl of cathepsin D (from human liver, Calbiochem) diluted in assay buffer (100 mM sodium acetate, 0.05% BSA, pH 5.5; final concentration:200 nM) or with 40 μl of recombinant human cathepsin E (R&D Systems) diluted in assay buffer (100 mM sodium acetate, 0.05% BSA, pH 4.5; final concentration:0.01 nM). After addition of 10 μl of the cathepsin D substrate WTSVLMAAPC-MR121 diluted in cathepsin D assay buffer (final concentration:300 nM) or 10 μl of the cathepsin E substrate MR121-CKLVFFAEDW diluted in cathepsin E assay buffer (final concentration:300 nM), the plates were strongly shaken for 2 minutes. The enzymatic reaction was followed in a plate: vision reader (Perkin Elmer) (excitation wavelength:630 nm; emission:695 nm) for at least 30 minutes in a kinetic measurement detecting an increase of MR121 fluorescence during the reaction time. The slope in the linear range of the kinetic was calculated and the IC50 of the test compounds were determined using a four parameter equation for curve fitting.

[3] = molecular target: T3, cathepsin D (from human liver) (Homo sapiens, UniProt P07339); experiment: Cathepsin D fluorescent substrate kinetic assay; assay type: biochemical; conditions: pH 5.5, substrate WTSVLMAAPC-MR121
T3 construct: cathepsin D (from human liver, Calbiochem) diluted in assay buffer; purchased Calbiochem; host or cells: human liver
Source text: as §1, §2, §3

T3 sequence (P07339 65-162 limits assumed): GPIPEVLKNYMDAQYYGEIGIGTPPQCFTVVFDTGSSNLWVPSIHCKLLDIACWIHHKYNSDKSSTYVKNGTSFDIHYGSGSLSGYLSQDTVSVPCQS
T3 sequence (P07339 169-412 limits assumed): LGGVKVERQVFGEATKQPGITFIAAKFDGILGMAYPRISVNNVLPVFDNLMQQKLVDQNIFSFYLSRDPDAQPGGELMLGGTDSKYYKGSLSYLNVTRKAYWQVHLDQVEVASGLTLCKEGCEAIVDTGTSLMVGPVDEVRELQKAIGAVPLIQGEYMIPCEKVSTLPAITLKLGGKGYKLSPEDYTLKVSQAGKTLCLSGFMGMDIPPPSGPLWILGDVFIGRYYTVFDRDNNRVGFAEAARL
T1 sequence (P56817 46-501): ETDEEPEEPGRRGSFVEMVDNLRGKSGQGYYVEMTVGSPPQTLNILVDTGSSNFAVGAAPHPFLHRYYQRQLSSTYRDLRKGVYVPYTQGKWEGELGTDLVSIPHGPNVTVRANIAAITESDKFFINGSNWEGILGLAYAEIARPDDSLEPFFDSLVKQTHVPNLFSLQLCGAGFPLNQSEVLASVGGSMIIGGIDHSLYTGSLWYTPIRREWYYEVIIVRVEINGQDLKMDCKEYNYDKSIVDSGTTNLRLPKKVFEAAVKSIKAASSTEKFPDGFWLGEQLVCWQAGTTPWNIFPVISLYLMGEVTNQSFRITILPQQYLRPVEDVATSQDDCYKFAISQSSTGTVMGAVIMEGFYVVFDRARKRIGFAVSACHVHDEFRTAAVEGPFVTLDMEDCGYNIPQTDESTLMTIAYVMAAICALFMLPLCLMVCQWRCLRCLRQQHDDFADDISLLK

| Structure (SMILES) | IC50 (BACE1) [µM] | GSH human [1] | IC50 [2] [µM] | IC50 [3] [µM] |
| --- | --- | --- | --- | --- |
| CN=[S@@]1(=O)C[C@@](C)(c2cc(-c3cc(-c4cnc(OCC(F)F)cn4)no3)ccc2F)N=C(N)C1(C)C [Example 5, (1R,3R)-5-amino-3-(5-(3-(5-(2,2-difluoroethoxy)pyrazin-2-yl)isoxazol-5-yl)-2-fluorophenyl)-3,6,6-trimethyl-1-(methylimino)-3,6-dihydro-2H-1,4-thiazine 1-oxide 2,2,2-trifluoroacetate] | 0.013 | NF | 78 | 29 |
| CN=[S@@]1(=O)C[C@@](C)(c2cc(-c3cc(-c4ncc(Cl)cn4)no3)ccc2F)N=C(N)C1(C)C [Example 6, (1R,3R)-5-amino-3-(5-(3-(5-chloropyrimidin-2-yl)isoxazol-5-yl)-2-fluorophenyl)-3,6,6-trimethyl-1-(methylimino)-3,6-dihydro-2H-1,4-thiazine 1-oxide 2,2,2-trifluoroacetate] | 0.006 | NF | 79 | 38 |
| CN=[S@@]1(=O)C[C@@](C)(c2cc(-c3cc(-c4cnc(OC)cn4)no3)ccc2F)N=C(N)C1(C)C [Example 7, (1R,3R)-5-amino-3-(2-fluoro-5-(3-(5-methoxypyrazin-2-yl)isoxazol-5-yl)phenyl)-3,6,6-trimethyl-1-(methylimino)-3,6-dihydro-2H-1,4-thiazine 1-oxide 2,2,2-trifluoroacetate] | 0.056 | NF | 182 | 37 |
| [2H]C([2H])([2H])N=[S@@]1(=O)C[C@@](C)(c2cc(-c3cc(-c4cnc(OC)cn4)no3)ccc2F)N=C(N)C1(C)C [Example 24, (1R,3R)-3-[2-fluoro-5-[3-(5-methoxypyrazin-2-yl)isoxazol-5-yl]phenyl]-3,6,6-rimethyl-1-oxo-1-(trideuteriomethylimino)-2H-1,4-thiazin-5-amine 2,2,2-trifluoroacetate] | 0.05 | – | 167 | 39 |

Source: US10047081B2, “BACE1 inhibitors” (Hoffmann-La Roche Inc., priority 2015, dated 2018)
